Reference: ChEMBL document CHEMBL5143699, “Identification of novel indole derivatives as highly potent AMPK activators with anti-diabetic profiles” (Bioorg Med Chem Lett, 2022)
Active and inactive are the calls of the source. The rule behind the calls is not given here.

What was measured:
[1] = target: AMPK alpha2/beta2/gamma1 (Homo sapiens) (UniProt P54646+O43741+P54619); assay: Activation of human recombinant AMPK A2/B2/G1 assessed as increase in AMPK phosphorylation using FL-peptide as substrate incubated for 120 mins by EZ reader method; type: protein-complex assay
AMPK alpha2/beta2/gamma1 (Homo sapiens), sequence (P54619 whole entry, looked up, one chain of several): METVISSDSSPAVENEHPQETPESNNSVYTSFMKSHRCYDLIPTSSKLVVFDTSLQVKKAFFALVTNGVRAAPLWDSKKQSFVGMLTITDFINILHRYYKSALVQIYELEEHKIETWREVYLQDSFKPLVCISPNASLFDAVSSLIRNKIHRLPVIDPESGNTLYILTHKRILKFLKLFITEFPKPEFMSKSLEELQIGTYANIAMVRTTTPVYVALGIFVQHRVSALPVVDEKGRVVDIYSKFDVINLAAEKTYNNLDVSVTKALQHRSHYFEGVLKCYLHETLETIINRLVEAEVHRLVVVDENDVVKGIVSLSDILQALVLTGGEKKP
AMPK alpha2/beta2/gamma1 (Homo sapiens), sequence (P54646 whole entry, looked up, one chain of several): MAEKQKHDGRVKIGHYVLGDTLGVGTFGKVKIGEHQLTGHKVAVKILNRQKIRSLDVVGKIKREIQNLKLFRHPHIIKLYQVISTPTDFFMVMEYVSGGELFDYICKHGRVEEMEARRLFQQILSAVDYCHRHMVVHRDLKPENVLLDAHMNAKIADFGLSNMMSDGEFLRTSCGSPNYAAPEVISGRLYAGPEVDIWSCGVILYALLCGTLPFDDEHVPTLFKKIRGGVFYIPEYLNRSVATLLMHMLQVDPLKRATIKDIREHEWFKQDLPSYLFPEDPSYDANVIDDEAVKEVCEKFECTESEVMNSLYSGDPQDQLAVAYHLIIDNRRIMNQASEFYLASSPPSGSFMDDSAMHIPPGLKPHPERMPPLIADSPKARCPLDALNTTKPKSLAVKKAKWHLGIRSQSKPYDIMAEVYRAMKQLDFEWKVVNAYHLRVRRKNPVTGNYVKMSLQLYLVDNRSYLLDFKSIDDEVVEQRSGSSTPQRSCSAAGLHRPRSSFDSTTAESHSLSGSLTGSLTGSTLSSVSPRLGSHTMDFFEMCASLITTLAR

Mus musculus [2] = assay: Antidiabetic activity against type 2 diabetic KKAy mouse model assessed as decrease in lipid accumulation in liver at 1.5 to 6 mg/kg,po bid measured on 25 to 26 days after insulin injection; type: functional, organism-based; settings: dose 1.5-6 mg/kg, time 25-26 day
Mus musculus [3] = assay: Antidiabetic activity against type 2 diabetic KKAy mouse model assessed as increase in Akt phosphorylation in skeletal muscle at 1.5 to 6 mg/kg,po bid measured on 25 to 26 days after insulin injection by ELISA; type: functional, organism-based; settings: dose 1.5-6 mg/kg, time 25-26 day
[4] = Cmax in rat at 1 mg/kg, po or 0.5 mg/kg, iv; type: ADME, organism-based; parameters: dose 1 mg/kg, route po; settings: in vivo
Mus musculus [5] = assay: Antidiabetic activity against type 2 diabetic KKAy mouse model assessed as decrease in plasma glucose level administrated orally bid measured after 21 days of administration by automatic analyzer; type: functional, organism-based; settings: route po, time 21.0 day, DDE = dose-dependent effect
[6] = AUC in rat at 1 mg/kg, po; type: ADME, organism-based; parameters: dose 1 mg/kg, route po; settings: in vivo
[7] = […] of the compound in rat liver at 1 mg/kg, po or 0.5 mg/kg, iv; type: ADME, organism-based
[8] = […] of the compound in rat muscle at 1 mg/kg, po or 0.5 mg/kg, iv; type: ADME, organism-based
Mus musculus [9] = assay: Antidiabetic activity against po dosed type 2 diabetic KKAy mouse model assessed as acute glucose lowering effect measured for 1 to 6 hrs; type: functional, organism-based; settings: time 1-6 hrs, DDE = dose-dependent effect
Mus musculus [10] = assay: Antidiabetic activity against type 2 diabetic KKAy mouse model assessed as decrease in HbA1c level administrated orally bid measured after 21 days of administration by automatic analyzer; type: functional, organism-based; settings: route po, time 21.0 day, DDE = dose-dependent effect
[11] = Metabolic stability in rat liver microsomes assessed as compound remaining measured after 30 mins; type: ADME, Microsome; settings: read-out: Stability
[12] = Metabolic stability in human liver microsomes assessed as compound remaining measured after 30 mins; type: ADME, Microsome; settings: read-out: Stability
[13] = Protein binding in serum (unknown origin) assessed as unbound fraction by equilibrium dialysis assay; type: ADME, cell-free
[14] = target: T1, 5'-AMP-activated protein kinase (Mus musculus) (UniProt Q5EG47+Q8BRK8+Q6PAM0+O54950+Q91WG5+Q9R078+Q8BGM7); assay: In vivo activation of AMPK in mouse liver assessed as increase in AMPKalpha phosphorylation level at 0.08 to 6.75 mg/kg,po by western blot method; type: functional, organism-based; settings: dose 0.08-6.75 mg/kg, DDE = dose-dependent effect
[15] = target: T1, 5'-AMP-activated protein kinase (Mus musculus); assay: In vivo activation of AMPK in mouse skeletal muscle assessed as increase in ACC phosphorylation level at 0.08 to 6.75 mg/kg,po by ELISA; type: functional, organism-based; settings: Skeletal muscle tissue, dose 0.08-6.75 mg/kg, DDE = dose-dependent effect
Cytochrome P450 1A2 = target: T2, Cytochrome P450 1A2 (Homo sapiens, UniProt P05177); assay: Inhibition of CYP1A2 in human liver microsomes using 7-ethoxyresorufin as substrate; type: ADME, Microsome
T2 sequence (P05177 whole entry): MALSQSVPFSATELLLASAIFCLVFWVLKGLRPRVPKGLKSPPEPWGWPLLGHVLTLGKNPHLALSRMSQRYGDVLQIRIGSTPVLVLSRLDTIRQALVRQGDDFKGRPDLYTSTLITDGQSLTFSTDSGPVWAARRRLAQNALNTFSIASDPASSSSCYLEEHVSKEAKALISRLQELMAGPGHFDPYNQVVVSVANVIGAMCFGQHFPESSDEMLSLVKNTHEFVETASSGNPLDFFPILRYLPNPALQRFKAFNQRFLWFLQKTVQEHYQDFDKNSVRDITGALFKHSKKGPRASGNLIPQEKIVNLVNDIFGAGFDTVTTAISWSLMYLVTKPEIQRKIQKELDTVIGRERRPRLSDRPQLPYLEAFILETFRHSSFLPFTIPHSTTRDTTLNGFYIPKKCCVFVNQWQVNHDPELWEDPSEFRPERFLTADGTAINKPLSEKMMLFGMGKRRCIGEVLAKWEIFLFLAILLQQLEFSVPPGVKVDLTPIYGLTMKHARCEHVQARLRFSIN

Cytochrome P450 2C19 = Cytochrome P450 2C19 (Homo sapiens, UniProt P33261); assay: Inhibition of CYP2C19 in human liver microsomes using mephenytoin as substrate; type: ADME, Microsome
Cytochrome P450 2C19, sequence (P33261 whole entry): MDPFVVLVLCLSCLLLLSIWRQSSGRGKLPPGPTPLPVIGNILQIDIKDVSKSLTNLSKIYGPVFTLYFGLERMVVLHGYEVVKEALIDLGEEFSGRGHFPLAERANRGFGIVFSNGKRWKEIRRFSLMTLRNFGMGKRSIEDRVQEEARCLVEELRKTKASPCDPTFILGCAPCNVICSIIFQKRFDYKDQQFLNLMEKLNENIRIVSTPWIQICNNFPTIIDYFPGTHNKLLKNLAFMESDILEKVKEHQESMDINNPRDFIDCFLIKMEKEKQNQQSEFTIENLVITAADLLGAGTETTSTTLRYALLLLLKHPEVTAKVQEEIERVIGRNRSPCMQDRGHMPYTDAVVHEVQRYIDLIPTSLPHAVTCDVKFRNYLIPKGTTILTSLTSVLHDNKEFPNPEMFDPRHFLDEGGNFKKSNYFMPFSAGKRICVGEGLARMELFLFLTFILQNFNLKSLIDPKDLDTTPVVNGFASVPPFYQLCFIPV

Cytochrome P450 2C9 = Cytochrome P450 2C9 (Homo sapiens, UniProt P11712); assay: Inhibition of CYP2C9 in human liver microsomes using tolbutamide as substrate; type: ADME, Microsome
Cytochrome P450 2C9, sequence (P11712 whole entry): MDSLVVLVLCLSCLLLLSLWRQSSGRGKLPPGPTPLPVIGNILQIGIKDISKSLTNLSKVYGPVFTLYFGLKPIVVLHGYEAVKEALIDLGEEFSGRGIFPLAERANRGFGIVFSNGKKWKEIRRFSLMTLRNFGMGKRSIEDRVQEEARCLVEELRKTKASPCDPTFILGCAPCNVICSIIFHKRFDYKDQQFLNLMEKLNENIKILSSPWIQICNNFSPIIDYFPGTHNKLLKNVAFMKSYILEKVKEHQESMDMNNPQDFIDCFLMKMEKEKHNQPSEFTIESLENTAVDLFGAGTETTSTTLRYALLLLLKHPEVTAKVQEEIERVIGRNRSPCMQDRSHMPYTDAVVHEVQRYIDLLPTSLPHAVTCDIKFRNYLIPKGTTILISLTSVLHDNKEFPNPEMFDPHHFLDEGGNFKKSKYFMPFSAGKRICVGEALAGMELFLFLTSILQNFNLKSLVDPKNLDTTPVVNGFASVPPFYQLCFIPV

Cytochrome P450 3A4 = Cytochrome P450 3A4 (Homo sapiens, UniProt P08684); assay: Inhibition of CYP3A4 in human liver microsomes using terfenedine as substrate; type: ADME, Microsome
Cytochrome P450 3A4, sequence (P08684 whole entry): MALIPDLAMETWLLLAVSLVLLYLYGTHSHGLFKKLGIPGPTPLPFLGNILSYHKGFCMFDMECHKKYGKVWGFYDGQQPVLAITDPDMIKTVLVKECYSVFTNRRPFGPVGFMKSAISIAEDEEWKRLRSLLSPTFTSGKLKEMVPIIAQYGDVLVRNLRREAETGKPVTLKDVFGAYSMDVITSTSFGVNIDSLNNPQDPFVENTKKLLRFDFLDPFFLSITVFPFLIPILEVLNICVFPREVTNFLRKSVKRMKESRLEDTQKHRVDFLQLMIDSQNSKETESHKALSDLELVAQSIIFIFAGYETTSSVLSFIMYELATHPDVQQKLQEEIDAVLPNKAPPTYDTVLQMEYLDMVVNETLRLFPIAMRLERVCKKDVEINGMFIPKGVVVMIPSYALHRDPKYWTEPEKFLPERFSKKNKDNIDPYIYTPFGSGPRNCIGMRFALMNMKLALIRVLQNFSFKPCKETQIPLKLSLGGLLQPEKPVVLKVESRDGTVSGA

Cytochrome P450 2D6 = Cytochrome P450 2D6 (Homo sapiens, UniProt P10635); assay: Inhibition of CYP2D6 in human liver microsomes using dextromethorphan as substrate; type: ADME, Microsome
Cytochrome P450 2D6, sequence (P10635 whole entry): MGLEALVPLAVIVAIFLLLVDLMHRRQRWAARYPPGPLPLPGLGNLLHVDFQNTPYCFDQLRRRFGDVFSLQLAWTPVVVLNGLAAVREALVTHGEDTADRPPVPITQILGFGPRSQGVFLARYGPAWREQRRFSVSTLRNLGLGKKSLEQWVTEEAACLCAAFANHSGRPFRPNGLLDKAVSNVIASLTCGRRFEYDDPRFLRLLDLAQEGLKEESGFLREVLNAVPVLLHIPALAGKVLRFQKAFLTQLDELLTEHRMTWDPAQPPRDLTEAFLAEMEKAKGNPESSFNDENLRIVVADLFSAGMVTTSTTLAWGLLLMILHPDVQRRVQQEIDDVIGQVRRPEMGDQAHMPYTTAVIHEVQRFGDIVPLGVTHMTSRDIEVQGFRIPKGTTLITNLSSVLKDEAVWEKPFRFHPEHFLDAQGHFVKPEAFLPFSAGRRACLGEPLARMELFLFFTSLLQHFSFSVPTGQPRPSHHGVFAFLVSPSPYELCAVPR

[16] = target: T3, 5'-AMP-activated protein kinase subunit beta-1 (Rattus norvegicus, UniProt P80386); assay: Activation of rat liver AMPK-beta1 using SAMS peptide as substrate incubated for 10 mins by microplate reader assay; type: tissue-based
T3 sequence (P80386 whole entry): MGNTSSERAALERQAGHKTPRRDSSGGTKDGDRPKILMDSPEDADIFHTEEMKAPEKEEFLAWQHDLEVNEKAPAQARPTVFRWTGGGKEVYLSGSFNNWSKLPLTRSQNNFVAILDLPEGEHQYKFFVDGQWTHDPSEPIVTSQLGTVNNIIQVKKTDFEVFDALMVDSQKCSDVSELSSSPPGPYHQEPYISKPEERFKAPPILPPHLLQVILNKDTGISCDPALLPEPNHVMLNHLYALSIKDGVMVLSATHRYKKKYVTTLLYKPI

[17] = target: T4, 5'-AMP-activated protein kinase subunit beta-2 (Homo sapiens, UniProt O43741); assay: Activation of recombinant AMPK-beta2 (unknown origin) assessed as increase in AMPK phosphorylation by DELFIA fluorescence assay
T4 sequence (O43741 whole entry): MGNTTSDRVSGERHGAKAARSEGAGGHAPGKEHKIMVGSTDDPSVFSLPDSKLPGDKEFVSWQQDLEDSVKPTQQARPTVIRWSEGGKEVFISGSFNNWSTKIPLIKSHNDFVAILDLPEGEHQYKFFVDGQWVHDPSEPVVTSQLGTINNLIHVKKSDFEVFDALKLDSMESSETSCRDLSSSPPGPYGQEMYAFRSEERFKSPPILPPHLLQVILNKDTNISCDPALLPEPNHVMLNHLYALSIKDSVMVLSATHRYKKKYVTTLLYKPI

N#Cc1c(O[C@@H]2CO[C@H]3[C@@H]2OC[C@H]3O)[nH]c2cc(Cl)c(-c3ccc(N4CCOCC4)cc3)nc12
EC150 ([1]; filed as activator): 0.087 µM

CS(C)(=O)=Nc1ccc(-c2ccc(-c3nc4cc(O[C@@H]5CO[C@H](CO)C5)[nH]c4cc3F)cc2)cc1
Activity (Mus musculus [2]): Active | Activity (Mus musculus [3]): Active | Cmax [4]: 130 ng/mL | Activity (Mus musculus [5]): Dde | AUC [6]: 810 ng·h/mL | Kp [7]: 7.14 | Kp [8]: 0.63 | Activity (Mus musculus [9]): Dde | Activity (Mus musculus [10]): Dde | remaining at 0.5 h [11]: 90% | EC150 ([1]; filed as activator): 0.001 µM | remaining at 0.5 h [12]: 94% | fraction unbound [13]: 0.011 | Activity [14]: Dde | Activity [15]: Dde

COc1ccc(-c2ccc(-c3nc4cc(O[C@@H]5CO[C@H]6[C@@H]5OC[C@H]6O)[nH]c4cc3F)cc2)cc1
EC150 ([1]; filed as activator): 0.011 µM

COCCOc1ccc(-c2ccc(-c3nc4cc(O[C@@H]5CO[C@H]6[C@@H]5OC[C@H]6O)[nH]c4cc3F)cc2)cc1
EC150 ([1]; filed as activator): 0.0073 µM | fraction unbound [13]: 0.002

CS(C)(=O)=Nc1ccc(-c2ccc(-c3nc4cc(O[C@@H]5CO[C@H]6[C@@H]5OC[C@H]6O)[nH]c4cc3F)cc2)cc1
IC50 (Cytochrome P450 1A2): > 10 µM | IC50 (Cytochrome P450 2C19): > 10 µM | Cmax [4]: 68.7 ng/mL | AUC [6]: 288 ng·h/mL | Kp [7]: 2.4 | Kp [8]: 0.61 | remaining at 0.5 h [11]: 91% | IC50 (Cytochrome P450 2C9): > 10 µM | EC150 ([1]; filed as activator): 0.001 µM | remaining at 0.5 h [12]: > 99% | IC50 (Cytochrome P450 3A4): > 10 µM | fraction unbound [13]: 0.016 | IC50 (Cytochrome P450 2D6): > 10 µM

N#CC1=C(O)C2C(c3ccc(-c4ccccc4O)cc3)=CSC2NC1=O (stereo unspecified)
EC50 [16]: 800 nM

CS(C)(=O)=Nc1ccc(-c2ccc(-c3nc4cc(O[C@@H]5CO[C@H]6[C@@H]5OC[C@H]6O)[nH]c4cc3F)cc2)nc1
IC50 (Cytochrome P450 1A2): > 10 µM | IC50 (Cytochrome P450 2C19): > 10 µM | Cmax [4]: 44.8 ng/mL | AUC [6]: 111 ng·h/mL | Kp [7]: 2.19 | Kp [8]: 0.98 | remaining at 0.5 h [11]: 83% | IC50 (Cytochrome P450 2C9): > 10 µM | EC150 ([1]; filed as activator): 0.0034 µM | remaining at 0.5 h [12]: > 99% | IC50 (Cytochrome P450 3A4): > 10 µM | fraction unbound [13]: 0.072 | IC50 (Cytochrome P450 2D6): > 10 µM

O=C1NC2SC(Cl)=C(c3ccc4c(c3O)CCCC4)C2C(O)=C1c1ccccc1 (stereo unspecified)
EC50 [17]: 1300 nM

N#Cc1c(O[C@@H]2CO[C@H]3[C@@H]2OC[C@H]3O)[nH]c2ccc(-c3ccc(N4CCOCC4)cc3)cc12
EC150 ([1]; filed as activator): 0.38 µM

Cn1c(O[C@@H]2CO[C@H]3[C@@H]2OC[C@H]3O)c(C#N)c2cc(-c3ccc(N4CCOCC4)cc3)c(Cl)cc21
EC150 [1]: > 100 µM

COCCOc1ccc(-c2ccc(-c3nc4cc(O[C@@H]5CO[C@H]6[C@@H]5OC[C@H]6O)[nH]c4cc3F)cc2)cn1
EC150 ([1]; filed as activator): 0.016 µM

O[C@@H]1CO[C@H]2[C@@H]1OC[C@H]2Oc1cc2nc(-c3ccc(-c4ccccc4)cc3)c(F)cc2[nH]1
EC150 ([1]; filed as activator): 0.017 µM

O[C@@H]1CO[C@H]2[C@@H]1OC[C@H]2Oc1cc2nc(-c3ccc(N4CCOCC4)cc3)c(F)cc2[nH]1
EC150 ([1]; filed as activator): 0.0053 µM

N#Cc1c(O[C@@H]2CO[C@H]3[C@@H]2OC[C@H]3O)[nH]c2cc(Cl)c(-c3ccc(N4CCOCC4)cc3)cc12
EC150 ([1]; filed as activator): 0.039 µM

O=C(c1ccc(-c2ccc(-c3nc4cc(O[C@@H]5CO[C@H]6[C@@H]5OC[C@H]6O)[nH]c4cc3F)cc2)cc1)N1CCCC1
IC50 (Cytochrome P450 2C19): 7.4 µM | EC150 ([1]; filed as activator): 0.0018 µM | fraction unbound [13]: 0.01

O=S1(=Nc2ccc(-c3ccc(-c4nc5cc(O[C@@H]6CO[C@H]7[C@@H]6OC[C@H]7O)[nH]c5cc4F)cc3)cc2)CCCC1
IC50 (Cytochrome P450 2C19): 3.7 µM | Cmax [4]: 43 ng/mL | AUC [6]: 251 ng·h/mL | Kp [7]: 3.34 | Kp [8]: 0.67 | remaining at 0.5 h [11]: 86% | EC150 ([1]; filed as activator): 0.002 µM | remaining at 0.5 h [12]: 98% | fraction unbound [13]: 0.01

O[C@@H]1CO[C@H]2[C@@H]1OC[C@H]2Oc1cc2nc(-c3ccc(N4CCOCC4)cc3)c(Cl)cc2[nH]1
EC150 ([1]; filed as activator): 0.0019 µM
